We go through 19 compounds from patent US8383094B2, “Hepatitis C virus inhibitors” (Bristol-Myers Squibb Company, priority 2008, dated 2013).

Molecules are shown by their SMILES.

The first test deals with HCV 1b genotype. Put plainly: HCV Replicon assay (HCV-neo replicon cells, wild-type). The test is classed as cell-based. The note with it: HCV 1b genotype replicon; range class A-D; read-out: 1b EC50 (in μM or range). As to the method: An HCV Replicon assay was utilized in the present disclosure, and was prepared, conducted and validated as described in commonly owned PCT/US2006/022197 and in O′Boyle et. al. Antimicrob Agents Chemother, 2005 April; 49(4):1346-53. Assay methods incorporating luciferase reporters have also been used as described (Apath.com).
HCV-neo replicon cells and replicon cells containing mutations in the NS5A region were used to test the currently described family of compounds. The compounds were determined to have more than 10-fold less inhibitory activity on cells containing mutations than wild-type cells. Thus, the compounds of the present disclosure can be effective in inhibiting the function of the HCV NS5A protein and are understood to be as effective in combinations as previously described in application PCT/US2006/022197 and commonly owned WO/04014852. Further, the compounds of the present disclosure can be effective against the HCV 1b genotype. It should also be understood that the compounds of the present disclosure can inhibit multiple genotypes of HCV. […] In one embodiment, compounds of the present disclosure are inhibitory versus 1a, 1b, 2a, 2b, 3a, 4a, and 5a genotypes.
For the compound `CCc1sc(Cl)nc1C(=O)N1CCC[C@H]1C(=O)Nc1ccc(C#Cc2ccc(NC(=O)[C@@H]3CCCN3C(=O)c3nc(Cl)sc3CC)cc2)cc1` [Example D36.1, (2S,2′S)-N,N′-(4,4′-(ethyne-1,2-diyl)bis(4,1-phenylene))bis(1-(2-chloro-5-ethylthiazole-4-carbonyl)pyrrolidine-2-carboxamide)], the EC50 lay in the range of 0.1 to 0.999 µM. As for `CCc1scnc1C(=O)N1CCC[C@H]1C(=O)Nc1ccc(C#Cc2ccc(NC(=O)[C@@H]3CCCN3C(=O)c3ncsc3CC)cc2)cc1` [Example D36.2, (2S,2′S)-N,N′-(4,4′-(ethyne-1,2-diyl)bis(4,1-phenylene))bis(1-(5-ethylthiazole-4-carbonyl)pyrrolidine-2-carboxamide)], the EC50 was 0.00457 to 0.099 µM. Regarding `C=Cc1cccnc1C(=O)N1CCC[C@H]1C(=O)Nc1ccc(C#Cc2ccc(NC(=O)[C@@H]3CCCN3C(=O)c3ncccc3C=C)cc2)cc1` [Example D36.3, (2S,2′S)-N,N′-(4,4′-(ethyne-1,2-diyl)bis(4,1-phenylene))bis(1-(3-vinylpicolinoyl)pyrrolidine-2-carboxamide)], the 50% effective concentration (EC50) was 0.1 to 0.999 µM. Consider `CCc1cccnc1C(=O)N1CCC[C@H]1C(=O)Nc1ccc(C#Cc2ccc(NC(=O)[C@@H]3CCCN3C(=O)c3ncccc3CC)cc2)cc1` [Example D36.4, (2S,2′S)-N,N′-(4,4′-(ethyne-1,2-diyl)bis(4,1-phenylene))bis(1-(3-ethylpicolinoyl)pyrrolidine-2-carboxamide)], for which the EC50 lay within 0.00457 to 0.099 µM.

The same test, now with this note: Hepatitis C virus, HCV 1b genotype replicon; range class A-D; read-out: 1b EC50 (in μM or range).
In the case of `O=C(Nc1ccc(C#Cc2ccc(NC(=O)[C@@H]3CCCN3C(=O)[C@H]3CCCO3)cc2)cc1)[C@H]1CCCO1` [Example D25, 1-((2R)-Tetrahydro-2-furanylcarbonyl)-N-(4-((4-(((2R)-tetrahydro-2-furanylcarbonyl)amino)phenyl)ethynyl)phenyl)-L-prolinamide], the EC50 was 1 to 10 µM. As to `O=C(Nc1ccc(C#Cc2ccc(NC(=O)[C@@H]3CCCN3C(=O)[C@H]3CCCO3)cc2)cc1)[C@@H]1CCCN1C(=O)[C@H]1CCCO1` [Example D26, (2S,2′S)-N,N′-(1,2-ethynediyldi-4,1-phenylene)bis(1-((2R)-tetrahydro-2-furanylcarbonyl)-2-pyrrolidinecarboxamide)], the EC50 was 0.00457 to 0.099 µM.

Consider `CC(=O)O[C@@H]1C[C@@H](C(=O)Nc2ccc(C#Cc3ccc(NC(=O)[C@@H]4CCCN4C(C)=O)cc3)cc2)N(C(=O)Cc2ccccc2)C1` [Example D27, (3R,5S)-5-((4-((4-((((2S)-1-Acetyl-2-pyrrolidinyl)carbonyl)amino)phenyl)ethynyl)phenyl)carbamoyl)-1-(phenylacetyl)-3-pyrrolidinyl acetate], for which the EC50 was in the range of 0.00457 to 0.099 µM. Consider `O=C(Nc1ccc(C#Cc2ccc(NC(=O)[C@@H]3CCCN3C(=O)c3nccc4ccccc34)cc2)cc1)[C@@H]1CCCN1C(=O)c1nccc2ccccc12` [Example D28, (2S,2′S)-N,N′-(1,2-ethynediyldi-4,1-phenylene)bis(1-(1-isoquinolinylcarbonyl)-2-pyrrolidinecarboxamide)], for which the EC50 was in the range of 0.1 to 0.999 µM.

Consider `O=C(Nc1ccc(C#Cc2ccc(NC(=O)[C@@H]3CCCN3C(=O)c3nccn3Cc3ccccc3)cc2)cc1)[C@@H]1CCCN1C(=O)c1nccn1Cc1ccccc1` [Example D29, (2S,2′S)-N,N′-(1,2-ethynediyldi-4,1-phenylene)bis(1-((1-benzyl-1H-imidazol-2-yl)carbonyl)-2-pyrrolidinecarboxamide)], for which the EC50 was in the range of 0.1 to 0.999 µM. As to `O=C(Nc1ccc(C#Cc2ccc(NC(=O)[C@@H]3CCCN3C(=O)c3nc(Cl)cc4ccccc34)cc2)cc1)[C@@H]1CCCN1C(=O)c1nc(Cl)cc2ccccc12` [Example D31, (2S,2′S)-N,N′-(1,2-ethynediyldi-4,1-phenylene)bis(1-((3-chloro-1-isoquinolinyl)carbonyl)-2-pyrrolidinecarboxamide)], the EC50 is 0.00457 to 0.099 µM. Consider `N#Cc1cc2ccccc2c(C(=O)N2CCC[C@H]2C(=O)Nc2ccc(C#Cc3ccc(NC(=O)[C@@H]4CCCN4C(=O)c4nc(C#N)cc5ccccc45)cc3)cc2)n1` [Example D32, (2S,2′S)-N,N′-(1,2-ethynediyldi-4,1-phenylene)bis(1-((3-cyano-1-isoquinolinyl)carbonyl)-2-pyrrolidinecarboxamide)], for which the EC50 was 0.00457 to 0.099 µM.

As to `COc1cccc2c(C(=O)N3CCC[C@H]3C(=O)Nc3ccc(C#Cc4ccc(NC(=O)[C@@H]5CCCN5C(=O)c5nc(Cl)cc6c(OC)cccc56)cc4)cc3)nc(Cl)cc12` [Example D33, (2S,2′S)-N,N′-(1,2-ethynediyldi-4,1-phenylene)bis(1-((3-chloro-5-methoxy-1-isoquinolinyl)carbonyl)-2-pyrrolidinecarboxamide)], the EC50 was 0.00457 to 0.099 µM. On the same count and under the same terms, next, `CCOc1cccc2c(C(=O)N3CCC[C@H]3C(=O)Nc3ccc(C#Cc4ccc(NC(=O)[C@@H]5CCCN5C(=O)c5nc(Cl)cc6c(OCC)cccc56)cc4)cc3)nc(Cl)cc12` [Example D34, (2S,2′S)-N,N′-(1,2-ethynediyldi-4,1-phenylene)bis(1-((3-chloro-5-ethoxy-1-isoquinolinyl)carbonyl)-2-pyrrolidinecarboxamide)]: 0.00457 to 0.099 µM; `CN(C)[C@@H](C(=O)N1CCC[C@H]1C(=O)Nc1ccc(C#Cc2ccc(NC(=O)[C@@H]3CCCN3C(=O)[C@@H](c3ccc(F)cc3)N(C)C)cc2)cc1)c1ccc(F)cc1` [Example D36, (2S,2′S)-N,N′-(1,2-ethynediyldi-4,1-phenylene)bis(1-((2R)-2-(dimethylamino)-2-(4-fluorophenyl)acetyl)-2-pyrrolidinecarboxamide)]: under 0.00457 µM. In the case of `O=C(Nc1ccc(C#Cc2ccc(NC(=O)[C@@H]3CCCN3C(=O)CC3CC3)cc2)cc1)[C@@H]1CCCN1C(=O)CC1CC1` [Example D37, (2S,2′S)-N,N′-(1,2-ethynediyldi-4,1-phenylene)bis(1-(cyclopropylacetyl)-2-pyrrolidinecarboxamide)], the EC50 is 0.00457 to 0.099 µM. As for `O=C(Nc1ccc(C#Cc2ccc(NC(=O)[C@@H]3CCCN3C(=O)c3nc(Cl)cc4ccccc34)cc2)cc1)[C@@H]1CCCN1C(=O)CC1CC1` [Example D38, (2S)-1-((3-Chloro-1-isoquinolinyl)carbonyl)-N-(4-((4-((((2S)-1-(cyclopropylacetyl)-2-pyrrolidinyl)carbonyl)amino)phenyl)ethynyl)phenyl)-2-pyrrolidinecarboxamide], the EC50 lay in the range of 0.00457 to 0.099 µM. Take `O=C(Nc1ccc(C#Cc2ccc(NC(=O)[C@@H]3CCCN3C(=O)Cc3cccnc3)cc2)cc1)[C@@H]1CCCN1C(=O)Cc1cccnc1` [Example D39, (2S,2′S)-N,N′-(1,2-ethynediyldi-4,1-phenylene)bis(1-(3-pyridinylacetyl)-2-pyrrolidinecarboxamide)]: the EC50 was under 0.00457 µM.

The same test, now with this note: Hepatitis C virus, HCV 1b genotype replicon; read-out: 1b EC50 (in μM or range).
Consider `Cn1c(C(=O)N2CCC[C@H]2C(=O)Nc2ccc(C#Cc3ccc(NC(=O)[C@@H]4CCCN4C(=O)c4cc5ccccc5n4C)cc3)cc2)cc2ccccc21` [Example D30, (2S,2′S)-N,N′-(1,2-ethynediyldi-4,1-phenylene)bis(1-((1-methyl-1H-indol-2-yl)carbonyl)-2-pyrrolidinecarboxamide)], for which the EC50 stood at 1.21 µM. For `COc1ccc2c(C(=O)N3CCC[C@H]3C(=O)Nc3ccc(C#Cc4ccc(NC(=O)[C@@H]5CCCN5C(=O)c5nc(Cl)cc6cc(OC)ccc56)cc4)cc3)nc(Cl)cc2c1` [Example D35, (2S,2′S)-N,N′-(1,2-ethynediyldi-4,1-phenylene)bis(1-((3-chloro-6-methoxy-1-isoquinolinyl)carbonyl)-2-pyrrolidinecarboxamide)], the EC50 stood at 0.094 µM.
